Laboratory results reported in US5462933A, “Modified bile acid conjugates, and their use as pharmaceuticals” (Hoechst Aktiengesellschaft, priority 1989, dated 1995).

Assay: In vivo perfused liver: absorption from portal vein blood and excretion into the bile
Set-up: species or system rat
Details: after W-X-G (Example 67)
Description: In order to investigate a selective absorption of bile acid derivatives into the liver and their hepatotropic action, the appropriate derivatives were injected as a bolus into a mesenteric vein of anesthetized rats and the excretion of these derivatives and the corresponding active compounds or active compound metabolites into the bile was analysed.
Male Sprague-Dawley rats (300-500 g bodyweight) had their food withdrawn and received water ad libitum. After tracheotomy, the abdomen was opened by median section under urethane anesthesia ([…] i.m. urethane 30%). The pylorus was ligated and the bile duct was cannulated by advancing a polyethylene tube (d=0.05 mm) up to the liver and the bile was drained. The volume of secretion was measured at 15 minute intervals. After a preliminary period of 60 minutes, the substances (0.5 ml of a 1 mM solution in 0.9% NaCl solution) were administered into a mesenteric vein in the course of 30 sec and the bile was collected at prestated time intervals (2, 4, 6, 8, 10, 15, 20, 30, 40, 50, 60, 70, 80, 90, 100, 110 and 120 min). The bile acid derivative was administered first, and the appropriate active compound was administered after a collection period of 2 hours. 120 min after administration of test substance, the bladder volume was measured and the urine was also collected. The bile and urine samples were stored on ice during the experiment and then deep-frozen.
Each 10 μl bile sample was applied to TLC plates (10×20 cm, silica gel 60 specific layer thickness 0.25 mm, No. 37581 Riedel de Haen, Seelze, Federal Republic of Germany) using Microcaps (Drummond, Broomall, USA) and the thin-layer plates were dried in the air for 20 min.
The plates were developed in the following mobile phases: Substance Mobile phase
The constituents of the mobile phases were bought from the usual manufacturers in the highest possible purity grade. After developing and drying the plates, the distribution of the active compounds and the bile acid derivatives, or their metabolites, was determined by densitometry (CD 50 densitometer, DESAGA; Heidelberg). Detection was carried out in reflection mode with linear sampling at the wavelengths 252 nm (chlorambucil/chlorambucil conjugate) or 260 nm (remaining substances).
In order to evaluate the chromatograms, the relative intensity of the bile acid derivatives, the active compounds or the active compound metabolites on a chromatogram was given in surface area units.

With `C[C@H](CCC(=O)NCCS(=O)(=O)O)[C@H]1CC[C@H]2[C@@H]3[C@H](O)C[C@@H]4C[C@@H](OCCNC(=O)CCCc5ccc(N(CCCl)CCCl)cc5)CC[C@]4(C)[C@H]3C[C@H](O)[C@]12C` [Example 67] the “(2) Conc. W-X-G in bile” value (bile at 2 min) was 1207 surface area units, the “Total (1) + (2)” value (bile at 2 min) was 1207 surface area units and the “(2) Conc. W-X-G in bile” value (bile at 4 min) was 17803 surface area units. The “Total (1) + (2)” value (bile at 4 min) was 17803 surface area units, the “(2) Conc. W-X-G in bile” value (bile at 6 min) was 21762 surface area units and the “Total (1) + (2)” value (bile at 6 min) was 21762 surface area units. For the same compound, the “(2) Conc. W-X-G in bile” value (bile at 8 min) was 27280 surface area units, the “Total (1) + (2)” value (bile at 8 min) was 27280 surface area units and the “(2) Conc. W-X-G in bile” value (bile at 10 min) was 27346 surface area units. The “Total (1) + (2)” value (bile at 10 min) was 27346 surface area units, the “(2) Conc. W-X-G in bile” value (bile at 15 min) was 16673 surface area units and the “Total (1) + (2)” value (bile at 15 min) was 16673 surface area units. For the same compound, the “(2) Conc. W-X-G in bile” value (bile at 20 min) was 10748 surface area units, the “Total (1) + (2)” value (bile at 20 min) was 10748 surface area units and the “(2) Conc. W-X-G in bile” value (bile at 30 min) was 5375 surface area units. For the same compound, the “Total (1) + (2)” value (bile at 30 min) was 5375 surface area units, the “(2) Conc. W-X-G in bile” value (bile at 40 min) was 1273 surface area units and the “Total (1) + (2)” value (bile at 40 min) was 1273 surface area units. For the same compound, the “(2) Conc. W-X-G in bile” value (bile at 50 min) was 828 surface area units, the “Total (1) + (2)” value (bile at 50 min) was 828 surface area units and the “(2) Conc. W-X-G in bile” value (bile at 60 min) was 633 surface area units. For the same compound, the “Total (1) + (2)” value (bile at 60 min) was 633 surface area units, the “(2) Conc. W-X-G in bile” value (bile at 70 min) was 826 surface area units and the “Total (1) + (2)” value (bile at 70 min) was 826 surface area units. For the same compound, the “(2) Conc. W-X-G in bile” value (bile at 80 min) was 635 surface area units, the “Total (1) + (2)” value (bile at 80 min) was 635 surface area units and the “(2) Conc. W-X-G in bile” value (bile at 90 min) was 638 surface area units. The “Total (1) + (2)” value (bile at 90 min) was 638 surface area units, the “(2) Conc. W-X-G in bile” value (bile at 100 min) was 559 surface area units and the “Total (1) + (2)” value (bile at 100 min) was 559 surface area units. The “(2) Conc. W-X-G in bile” value (bile at 110 min) was 408 surface area units, the “Total (1) + (2)” value (bile at 110 min) was 408 surface area units and the “(2) Conc. W-X-G in bile” value (bile at 120 min) was 383 surface area units. For the same compound, the “Total (1) + (2)” value (bile at 120 min) was 383 surface area units.
